pEC50: −log10 of the molar value.
Key:
Assay type in all cases: cell-based, mouse
[1] = tested on: β-galactosidase in CMV-LacZ C2C12 myoblasts; assay: CMV-LacZ secondary screen in C2C12 myoblasts (β-Gal stabilizing assay); settings: CMV-LacZ C2C12 myoblasts
In short: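 Dose-response runs at 0.5–40 μM (0.5, 1, 5, 10, 20, 40 μM; N=2 per point) used a clonal C2C12 line carrying CMV-LacZ. Cells were assayed as myoblasts or as differentiated myotubes, and β-galactosidase levels were read with the FDG fluorogenic substrate.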

[2] = tested on: α7 integrin (LacZ reporter in α7βgal+/− myoblasts); assay: Myoblast α7+/LacZ integrin FDG assay (Burkin assay in myoblasts, 96-well); settings: α7+/LacZ myoblasts, 96-well
[3] = tested on: α7 integrin (LacZ reporter in α7+/LacZ myotubes); assay: Myotube α7 integrin FDG assay (Burkin assay in myotubes, 96-well); settings: myotubes
[4] = tested on: β-galactosidase in CMV-LacZ C2C12 myotubes; assay: CMV-LacZ secondary screen in C2C12 myotubes (β-Gal stabilizing assay); settings: C2C12 CMV-LacZ myotubes, fold relative to DMSO
In short: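 CMV-LacZ C2C12 line (clonal, FDG-screened); myoblasts/myotubes dosed 0.5–40 μM (0.5, 1, 5, 10, 20, 40 μM); n=2 per point; β-gal stabilization read-out.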

SMILES | CMV-LACZ in Myoblasts (β-galactosidase activity relative to DMSO) ([1]; 0.5 uM) | CMV-LACZ in Myoblasts (β-galactosidase activity relative to DMSO) ([1]; 1 uM) | CMV-LACZ in Myoblasts (β-galactosidase activity relative to DMSO) ([1]; 5 uM) | CMV-LACZ in Myoblasts (β-galactosidase activity relative to DMSO) ([1]; 10 uM) | CMV-LACZ in Myoblasts (β-galactosidase activity relative to DMSO) ([1]; 20 uM) | CMV-LACZ in Myoblasts (β-galactosidase activity relative to DMSO) ([1]; 40 uM) | Burkin Assay in Myoblasts, signal relative to DMSO ([2]; 0.5 uM) | Burkin Assay in Myoblasts, signal relative to DMSO ([2]; 1 uM) | Burkin Assay in Myoblasts, signal relative to DMSO ([2]; 5 uM) | Burkin Assay in Myoblasts, signal relative to DMSO ([2]; 10 uM) | Burkin Assay in Myoblasts, signal relative to DMSO ([2]; 20 uM) | Burkin Assay in Myoblasts, signal relative to DMSO ([2]; 40 uM) | Burkin Assay in Myotubes, α7 integrin LacZ reporter signal relative to DMSO ([3]; 0.5 uM) | Burkin Assay in Myotubes, α7 integrin LacZ reporter signal relative to DMSO ([3]; 1 uM) | Burkin Assay in Myotubes, α7 integrin LacZ reporter signal relative to DMSO ([3]; 5 uM) | Burkin Assay in Myotubes, α7 integrin LacZ reporter signal relative to DMSO ([3]; 10 uM) | Burkin Assay in Myotubes, α7 integrin LacZ reporter signal relative to DMSO ([3]; 20 uM) | Burkin Assay in Myotubes, α7 integrin LacZ reporter signal relative to DMSO ([3]; 40 uM) | CMV-LACZ in Myotubes, signal relative to DMSO ([4]; 0.5 uM) | CMV-LACZ in Myotubes, signal relative to DMSO ([4]; 1 uM) | also measured
Nc1ncnc(N2CCc3ccccc32)c1[N+](=O)[O-] [MLS000683232-01] | 0.8043 | 0.7131 | 0.5638 | 0.5224 | 0.6119 | 0.8237 | 1.234 | 1.199 | 1.6445 | 1.778 | 1.821 | 1.654 | 1.136 | 1.2778 | 1.272 | 1.448 | 1.4149 | 1.32 | 0.8200 | 0.7752 | MT FOLD INCREASE ([3]; maximum response): 1.7 fold; pEC50 ([3]; nonlinear regression of dose-response curves, read-out: EC50 α7+/LacZ MT): 5.28; CMV-LACZ in Myotubes, signal relative to DMSO ([4]; 5 uM): 0.8743; CMV-LACZ in Myotubes, signal relative to DMSO ([4]; 10 uM): 1.0086; CMV-LACZ in Myotubes, signal relative to DMSO ([4]; 20 uM): 0.8835; CMV-LACZ in Myotubes, signal relative to DMSO ([4]; 40 uM): 0.8365
Cc1ccc(Cn2nnc3c(=O)[nH]c(C4CCCN(C(=O)c5ccco5)C4)nc32)cc1 (centres unmarked) [MLS001217212-01] | 1.1804 | 0.9179 | 1.0711 | 1.0626 | 1.1137 | 0.9459 | 1.095 | 1.178 | 0.9785 | 0.9933 | 0.9967 | 1.064 | 0.8233 | 0.8386 | 0.8831 | 0.8772 | 0.7663 | 0.7366 | 1.0190 | 0.9610 | CMV-LACZ in Myotubes, signal relative to DMSO ([4]; 5 uM): 0.9795; CMV-LACZ in Myotubes, signal relative to DMSO ([4]; 10 uM): 1.0832; CMV-LACZ in Myotubes, signal relative to DMSO ([4]; 20 uM): 1.1842; CMV-LACZ in Myotubes, signal relative to DMSO ([4]; 40 uM): 1.0105
COC(=O)Cn1c(=O)c2c(nc3n2CC(C)CN3Cc2ccccc2)n(C)c1=O (centres unmarked) [MLS001166758-01] | 0.9357 | 1.0175 | 1.1998 | 1.0661 | 0.6126 | 0.3481 | 0.824 | 0.7394 | 0.9736 | 0.8245 | 0.7275 | 0.6174 | 1.0327 | 1.027 | 0.9857 | 0.8979 | 0.9856 | 0.8754 | 0.9958 | 0.7474 | CMV-LACZ in Myotubes, signal relative to DMSO ([4]; 5 uM): 0.9780; CMV-LACZ in Myotubes, signal relative to DMSO ([4]; 10 uM): 0.9444; CMV-LACZ in Myotubes, signal relative to DMSO ([4]; 20 uM): 1.1044; CMV-LACZ in Myotubes, signal relative to DMSO ([4]; 40 uM): 0.9867
Cl.O=C1C2CCCN2C(=O)N1CCCN1CCN(c2cccc(Br)c2)CC1 (centres unmarked) [MLS001180929-01] | 0.8571 | 0.9288 | 0.8251 | 0.8753 | 0.9811 | 0.6163 | 1.077 | 1.0555 | 1.05 | 1.05 | 1.102 | 1.1941 | 0.899 | 0.9256 | 0.9643 | 1.03 | 0.8659 | 1.135 | 0.8848 | 0.7876 | CMV-LACZ in Myotubes, signal relative to DMSO ([4]; 5 uM): 1.0533; CMV-LACZ in Myotubes, signal relative to DMSO ([4]; 10 uM): 1.0084; CMV-LACZ in Myotubes, signal relative to DMSO ([4]; 20 uM): 1.1347; CMV-LACZ in Myotubes, signal relative to DMSO ([4]; 40 uM): 1.0274
Cc1cc(OCC(=O)NC(C)C)ccc1Cl [MLS000684034-01] | 1.2525 | 1.1492 | 1.2045 | 1.0568 | 0.5374 | 0.3100 | 0.999 | 1.02 | 0.7872 | 0.6258 | 0.4225 | 0.3085 | 0.9731 | 0.9536 | 0.8383 | 0.8076 | 0.7403 | 0.7385 | 1.0962 | 0.9810 | CMV-LACZ in Myotubes, signal relative to DMSO ([4]; 5 uM): 1.1407; CMV-LACZ in Myotubes, signal relative to DMSO ([4]; 10 uM): 1.1903; CMV-LACZ in Myotubes, signal relative to DMSO ([4]; 20 uM): 1.2347; CMV-LACZ in Myotubes, signal relative to DMSO ([4]; 40 uM): 1.0105

— patent US9980943B2, “Methods of treating muscular dystrophy” (BOARD OF REGENTS OF THE NEVADA SYSTEM OF HIGHER EDUCATION, …, priority 2013, dated 2018)
